Laboratory results as given in US20100048575A1, “NOVEL TETRACYCLIC INHIBITORS OF CYSTEINE PROTEASES, THE PHARMACEUTICAL COMPOSITIONS THEREOF AND THEIR THERAPEUTIC APPLICATIONS” (priority 2006, published 2010).

Key:
USP5 = target: T1, USP5 (Homo sapiens, UniProt P45974); assay: USP5 activity assay (Ub-AMC); type: biochemical; conditions: 400 nM Ub-AMC, 300 pM enzyme, 30 min pre-incubation, 60 min at 37° C., sigmoidal fit; read-out: USP5 (inhibition of cysteine protease activity)
T1 sequence (P45974 1-858): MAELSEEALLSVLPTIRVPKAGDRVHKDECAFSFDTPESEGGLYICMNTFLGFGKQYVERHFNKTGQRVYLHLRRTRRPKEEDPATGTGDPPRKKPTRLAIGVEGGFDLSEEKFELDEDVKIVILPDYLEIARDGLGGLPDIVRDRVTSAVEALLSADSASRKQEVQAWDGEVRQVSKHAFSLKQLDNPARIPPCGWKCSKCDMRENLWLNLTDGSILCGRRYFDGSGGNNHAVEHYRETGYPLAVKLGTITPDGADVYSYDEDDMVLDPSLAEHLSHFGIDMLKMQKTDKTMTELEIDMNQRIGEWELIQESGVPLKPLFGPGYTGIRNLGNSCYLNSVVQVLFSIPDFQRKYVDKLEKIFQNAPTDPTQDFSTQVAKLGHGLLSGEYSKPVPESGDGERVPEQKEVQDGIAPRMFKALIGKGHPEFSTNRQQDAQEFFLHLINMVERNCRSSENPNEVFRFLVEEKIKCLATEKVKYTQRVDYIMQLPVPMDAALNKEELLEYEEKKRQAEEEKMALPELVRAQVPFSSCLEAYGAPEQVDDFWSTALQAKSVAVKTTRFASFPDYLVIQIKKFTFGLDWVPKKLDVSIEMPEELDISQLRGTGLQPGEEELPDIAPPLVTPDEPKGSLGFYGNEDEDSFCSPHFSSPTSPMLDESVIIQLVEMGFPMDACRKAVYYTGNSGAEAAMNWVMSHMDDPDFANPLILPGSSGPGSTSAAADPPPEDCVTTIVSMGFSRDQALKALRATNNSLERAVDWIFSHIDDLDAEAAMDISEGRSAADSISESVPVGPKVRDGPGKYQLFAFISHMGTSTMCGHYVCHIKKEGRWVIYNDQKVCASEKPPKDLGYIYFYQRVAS
Protocol: USP5 was diluted in USP buffer (50 mM Tris HCl; 0.5 mM EDTA; 5 mM DTT; 0.01% Triton X-100; Bovine Serum Albumin 0.05 mg.ml^−1 pH7.6). Compounds stocks (100 mM) were stored at −20° C. in DMSO.
Reactions were performed as duplicates in Black LJL 96 well plates (HE microplates; Molecular Devices; 20 μl final reaction volume). The substrate concentration for USP5 was 400 nM Ub-AMC (Boston Biochem). The concentrations of the enzyme (USP5) in specificity assays was 300 pM. The concentrations were determined in order to perform specificity assays under initial velocities at fixed substrate concentration. Compounds were pre-incubated with enzymes for 30 minutes at 25° C. Reactions were initiated by addition of substrate to the plates containing the enzymes (+/−compounds) diluted in assay buffer. Reactions were incubated for 60 minutes at 37° C. Reactions were stopped by adding acetic acid (100 mM final). Readings were performed on a Pherastar Fluorescent Reader (BMG). λ Emission 380 nm; λ Excitation=460 nm. Data (mean values +/−standard deviation) were analyzed as % of control (no compound) and plotted as percentage versus the Log of the compound concentration using GraphPad (Prism). Data were fitted to a sigmoidal model (variable slope).

[1] = system: PC-3 prostate cancer cells; assay: PC3 cell viability and proliferation assay (MTS); type: cell-based; conditions: Homo sapiens, 72 hours, mean of 3 independent experiments, read-out: PC3 GI50 D3
Protocol: PC-3 prostate cancer cells were obtained from ATCC, and maintained in F-12K medium containing 7% FBS and 1% penicillin/streptomycin. Cells were incubated at 37° C. in a humidified atmosphere containing 5% CO2.
Cell viability was assayed using the MTS technique in 96-well culture plates (CellTiter 96® Aqueous Non-Radioactive Cell Proliferation Assay, Promega) according to the manufacturer's instructions. MTS (3-(4,5-dimethyl-thiazol-2-yl)-5-(3-carboxymethoxyphenyl)-2-(4-sulfophenyl)-2H-tetrazolium) is a MTT-derived tetrazolium that is reduced in metabolically active cells into a soluble, cell-permeant formazan. The amount of formazan, detected by its absorbance at 492 nm is proportional to the number of living, metabolically active cells.
2×10^3 PC3 cells were seeded per well. 24 hours later, the medium was changed and the cells treated in triplicate with the following concentrations of each compound: 10 μM-3.33 μM-1.11 μM-370 nM-123 nM-41 nM-14 nM and 5 nM. The compounds were diluted in 100% DMSO, whose final concentration on cells was kept at 0.5%.
Cells were incubated with the compounds for 72 hours, and their viability then assayed by the addition of MTS for 2 hours. Absorbance at 492 nm was measured directly from the 96-well culture plates. GI50 (Growth Inhibition 50) concentrations for each compound were calculated using a sigmoidal variable slope fit (Prism 4.0, Graphpad Softwares). Values represent mean of 3 independent experiments.

Cathepsin B = Cathepsin B (Homo sapiens, UniProt P07858); assay: Cathepsin B activity assay (z-RR-AMC); type: biochemical; conditions: 36 μM z-RR-AMC, 3.6 nM enzyme, 30 min pre-incubation, 60 min at 37° C., sigmoidal fit; read-out: cathepB (inhibition of cysteine protease activity)
Protocol: Cathepsin B was diluted in Cathepsin B buffer (20 mM Tris HCl pH 6.8; 1 mM EDTA; 1 mM DTT). Compounds stocks (100 mM) were stored at −20° C. in DMSO. Compounds were tested at the following final concentrations: 100 μM; 33.3 μM; 11.1 μM; 3.7 μM; 1.23 μM; 412 nM; 137 nM; 45.7 nM; 15.2 nM; 5 nM. Reactions were performed as duplicates in Black LJL 96 well plates (HE microplates; Molecular Devices; 20 μl final reaction volume). The substrate concentration for cathepsin B specificity assay was 36 μM (z-RR-AMC; Calbiochem). The concentration of the enzyme (Cathepsin B) in specificity assays was 3.6 nM. The concentrations were determined in order to perform specificity assays under initial velocities at fixed substrate concentration. Compounds were pre-incubated with enzymes for 30 minutes at 25° C. Reactions were initiated by addition of substrate to the plates containing the enzymes (+/−compounds) diluted in assay buffer. Reactions were incubated for 60 minutes at 37° C. Reactions were stopped by adding acetic acid (100 mM final). Readings were performed on a Pherastar Fluorescent Reader (BMG). δ Emission 380 nm; δ Excitation=460 nm. Data (mean values +/−standard deviation) were analyzed as % of control (no compound) and plotted as percentage versus the Log of the compound concentration using GraphPad (Prism). Data were fitted to a sigmoidal model (variable slope).

CON=C1c2ccccc2-c2nn3c(C)nnc3nc21 (mixture of isomers) [5a, 3-Methyl-1,2,3a,4,10-pentaaza-cyclopenta[b]fluoren-9-one O-methyl-oxime] was tested, and the IC50 (USP5) was 1800 nM, the GI50 [1] was 6150 nM and the IC50 (Cathepsin B) was 2600 nM.

For C=CCON=C1c2ccccc2-c2nn3c(C)nnc3nc21 (mixture of isomers) [5b, 3-Methyl-1,2,3a,4,10-pentaaza-cyclopenta[b]fluoren-9-one O-allyl-oxime], the IC50 (USP5) was 1150 nM and the GI50 [1] was 6690 nM.

C=CCON=C1c2ccccc2-c2nn3c(CCCC)nnc3nc21 (mixture of isomers) [5d, 3-Butyl-1,2,3a,4,10-pentaaza-cyclopenta[b]fluoren-9-one O-allyl-oxime] was tested, and the IC50 (USP5) was 1420 nM, the GI50 [1] was 2790 nM and the IC50 (Cathepsin B) was 6700 nM.

With CCCCCCCCCCON=C1c2ccccc2-c2nn3nnnc3nc21 (mixture of isomers) [8a, 1,2,3,3a, 4,10-Hexaaza-cyclopenta[b]fluoren-9-one O-decyl-oxime] the IC50 (USP5) was 54000 nM, the GI50 [1] was 391 nM and the IC50 (Cathepsin B) was 15800 nM.

With COCCON=C1c2ccccc2-c2nn3nnnc3nc21 (mixture of isomers) [8b, 1,2,3,3a, 4,10-Hexaaza-cyclopenta[b]fluoren-9-one O-(2-methoxy-ethyl)-oxime] the GI50 [1] was 457 nM and the IC50 (Cathepsin B) was 2100 nM.

c1ccc(OCCCON=C2c3ccccc3-c3nn4nnnc4nc32)cc1 (mixture of isomers) [8c, 1,2,3,3a,4,10-Hexaaza-cyclopenta[b]fluoren-9-one O-(3-phenoxy-propyl)-oxime] gave an IC50 (USP5) of 470 nM, a GI50 [1] of 502 nM and an IC50 (Cathepsin B) of 3800 nM.

Work on C=CCON=C1c2ccccc2-c2nn3c(CC)nnc3nc21 (mixture of isomers) [10f, 3-Ethyl-1,2,3a,4,10-pentaaza-cyclopenta[b]fluoren-9-one O-allyl-oxime] yielded an IC50 (USP5) of 1200 nM and a GI50 [1] of 8400 nM.

C=CCON=C1c2ccccc2-c2nn3nnnc3nc21 (mixture of isomers) [compound 6, 1,2,3,3a,4,10-hexaaza-cyclopenta[b]fluoren-9-one O-allyl-oxime] gave a GI50 [1] of 180 nM and an IC50 (Cathepsin B) of 300 nM.

In the case of ON=C1c2ccccc2-c2nn3nnnc3nc21 (mixture of isomers) [compound 7, 1,2,3,3a,4,10-hexaaza-cyclopenta[b]fluoren-9-one oxime], the GI50 [1] is reported as 466 nM and the IC50 (Cathepsin B) is reported as 890 nM.
